# Measurements published in patent US20260062412A1, “NITROGEN-CONTAINING HETEROCYCLIC COMPOUND HAVING MYT1 INHIBITORY ACTIVITY” (CHUGAI SEIYAKU KABUSHIKI KAISHA, priority 2023, published 2026).
# Assays:
# MYT1 protein [1] = target: T1, MYT1 protein (Homo sapiens (Human), UniProt Q99640); assay: Test for binding to ATP binding site of MYT1 (Kinase Tracer 178 / Eu-Anti-GST antibody TR-FRET); settings: ATP binding site of MYT1, 30 minutes at room temperature
# MYT1 protein [2] = target: T1, MYT1 protein; assay: MYT1 kinase activity inhibition test (ELISA, phosphorylation of Y15 of CDK1); type: biochemical; settings: phosphorylation level of Y15 of CDK1 protein caused by MYT1 protein, 60 minutes
# Experimental: The MYT1 kinase activity inhibitory capacity of each compound was evaluated by evaluating the phosphorylation level of Y15 of CDK1 protein caused by MYT1 protein, by ELISA. The kit of CycLex Weel Kinase Assay/Inhibitor Screening Kit Ver. 3 (manufactured by MBL, CY-1172V3) was used. Using Kinase Buffer, 10 μL of 5 nM MYT1 protein (manufactured by Carna Biosciences, Inc.) was prepared. In addition, 30 μL of 83.3 μM of ATP was prepared using Kinase Buffer. In addition, 10 μL of each compound was diluted to each concentration using Kinase Buffer. 30 μL of ATP was added to the plate of the kit, and thereafter, 10 μL of each compound was added thereto. Further, 10 μL of the diluted MYT1 protein solution was added thereto, and then the mixture was mixed, which was allowed to stand at room temperature for 60 minutes. The reaction solution was removed from each well, and each well was washed using Wash Buffer. After Wash Buffer was removed, 100 μL of HRP conjugated Anti-phospho-tyrosine antibody was added to each well, which was allowed to stand at room temperature for 60 minutes. Thereafter, the reaction solution was removed from each well, and each well was washed using Wash Buffer. After Wash Buffer was removed, 100 μL of Substrate Reagent was added to each well, which was allowed to stand at room temperature for 8 minutes. Thereafter, 100 μL of Stop Solution (1 N sulfuric acid) was added to each well according to the manual. Absorbances at 450 nm and 590 nm were measured using Envision (manufactured by PerkinElmer). The phosphorylation level of CDK1 protein was evaluated for each well by subtracting the absorbance at 590 nm from the absorbance at 450 nm. The inhibition rate of each compound added at each concentration was calculated by setting the signal when the compound was not added as 100% and the signal when MYT1 protein was not added as 0%, and the calculation results of IC50 were shown in Table 4.
# LU65 = assay: Cytotoxicity test with pemetrexed upon addition of each example compound (CellTiter-Glo); type: cell-based, human; settings: combination with pemetrexed, LU65 cells, 7 days; maximum value, at the MYT1 inhibitor and pemetrexed concentrations
# Experimental: LU65 (received from human tissue bank (JCRB Cell Bank)) was used in the evaluation of the present invention. LU65 is a lung cancer cell line having a truncated deletion mutation of S82* in RB1 gene (see Nature. 2019 May; 569(7757): 503-508. (Non Patent Literature 22)), in which the function of RB1 is decreased. The cell culture was carried out using RPMI-1640 (manufactured by SIGMA) containing 10% FBS (manufactured by SIGMA).
# Each pemetrexed (manufactured by Tokyo Kasei Kogyo Co., Ltd.) and each example compound of each concentration were diluted using a DMSO solution, and 0.04 μL of each of series of dilution and DMSO was added to each well of cell culture plate using Echo 555 Liquid Handler (manufactured by Beckman Coulter Inc.). 1000 LU65 cells ([…]) were added to each well, which was cultured at 37° C. in a 5% CO2 incubator for 7 days. Intracellular ATP level which is a cell survival marker was measured and used in the monitoring of cell number. After culturing, 20 μL of CellTiter-Glo (registered trademark) 2.0 (manufactured by Promega) was added to each well, and the emission intensity was measured using Multimode Plate Reader En Vision (registered trademark) Xcite (manufactured by PerkinElmer). The cell survival rate under each condition was calculated by setting the value obtained by subtracting the luminescence of the cell unseeded well from the luminescence of the DMSO-added well as 100%, and calculating the proportion of a value obtained by subtracting the luminescence of the cell unseeded well from the luminescence detected at each well.
# In addition, the cytotoxic activity under each condition was calculated by subtracting the survival rate in a combination of pemetrexed of each treatment concentration and each example compound of each treatment concentration, from 100%.
# T1 sequence (Q99640 whole entry): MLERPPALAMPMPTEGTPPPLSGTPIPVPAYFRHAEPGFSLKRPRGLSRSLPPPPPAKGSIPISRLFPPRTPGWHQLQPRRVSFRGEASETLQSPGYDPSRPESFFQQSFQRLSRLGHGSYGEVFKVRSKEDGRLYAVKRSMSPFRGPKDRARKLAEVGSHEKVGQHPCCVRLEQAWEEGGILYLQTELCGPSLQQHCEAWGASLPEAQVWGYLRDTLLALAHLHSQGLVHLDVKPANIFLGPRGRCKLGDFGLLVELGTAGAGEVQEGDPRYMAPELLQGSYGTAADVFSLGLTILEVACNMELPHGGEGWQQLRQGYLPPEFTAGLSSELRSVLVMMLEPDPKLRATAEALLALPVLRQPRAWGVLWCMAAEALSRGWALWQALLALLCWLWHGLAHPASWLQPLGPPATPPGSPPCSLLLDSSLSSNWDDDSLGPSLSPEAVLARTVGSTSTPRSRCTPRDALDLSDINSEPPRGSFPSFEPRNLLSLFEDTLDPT
Structure (SMILES),IC50 (MYT1 protein [1]) [nM],IC50 (MYT1 protein [2]) [nM],Bliss Score (Max) (LU65) [%],HSA Score (MAX) (LU65) [%]
"Nc1c(-c2cccc3[nH]ncc23)c2cc(C3CC3)c3ccc(F)cc3c2[nH]c1=O [Compound B47, 3-Amino-6-cyclopropyl-9-fluoro-4-(1H-indazol-4-yl)-1H-benzo[h]quinolin-2-one]",10,1.1,54,62
"Cl.Nc1c(-c2cccc3[nH]ncc23)c2cc(C3CC3)c3cc(F)ccc3c2[nH]c1=O [Compound B48, 3-Amino-6-cyclopropyl-8-fluoro-4-(1H-indazol-4-yl)-1H-benzo[h]quinolin-2-one; hydrochloride]",18,2.5,66,70
"Nc1c(-c2cccc3[nH]ncc23)c2cc(C3CC3)c3ccccc3c2[nH]c1=O [Compound B49, 3-amino-6-cyclopropyl-4-(1H-indazol-4-yl)-1H-benzo[h]quinolin-2-one]",6.2,6.4,86,84
"Nc1c(-c2ccc(F)c3[nH]ncc23)c2cc(Br)c3ncccc3c2[nH]c1=O [Compound C1, 3-amino-6-bromo-4-(7-fluoro-1H-indazol-4-yl)-1H-1,7-phenanthrolin-2-one]",2,< 0.17,59,71
"COc1cc2c(-c3ccc(F)c4[nH]ncc34)c(N)c(=O)[nH]c2c2cccnc12 [Compound C4, 3-Amino-4-(7-fluoro-1H-indazol-4-yl)-6-methoxy-1H-1,7-phenanthrolin-2-one]",1.3,0.15,61,62
"CCOc1cc2c(-c3ccc(F)c4[nH]ncc34)c(N)c(=O)[nH]c2c2cccnc12 [Compound C8, 3-Amino-6-ethoxy-4-(7-fluoro-1H-indazol-4-yl)-1H-1,7-phenanthrolin-2-one]",1.6,0.3,68,78
"CC(C)Oc1cc2c(-c3ccc(F)c4[nH]ncc34)c(N)c(=O)[nH]c2c2cccnc12 [Compound C13, 3-Amino-4-(7-fluoro-1H-indazol-4-yl)-6-propan-2-yloxy-1H-1,7-phenanthrolin-2-one]",1.4,0.15,62,66
"Nc1c(-c2ccc(F)c3[nH]ncc23)c2cc(F)c3ncccc3c2[nH]c1=O [Compound C64, 3-Amino-6-fluoro-4-(7-fluoro-1H-indazol-4-yl)-1H-1,7-phenanthrolin-2-one]",7.4,0.2,45,54
"COc1cc2c(-c3cc(F)c(F)c4[nH]ncc34)c(N)c(=O)[nH]c2c2cccnc12 [Compound C65, 3-Amino-4-(6,7-difluoro-1H-indazol-4-yl)-6-methoxy-1H-1,7-phenanthrolin-2-one]",3.2,0.083,53,58
"CCOc1cc2c(-c3cc(F)c(F)c4[nH]ncc34)c(N)c(=O)[nH]c2c2cccnc12 [Compound C67, 3-Amino-4-(6,7-difluoro-1H-indazol-4-yl)-6-ethoxy-1H-1,7-phenanthrolin-2-one]",2.4,0.1,77,79
"CC(C)Oc1cc2c(-c3cc(F)c(F)c4[nH]ncc34)c(N)c(=O)[nH]c2c2cccnc12 [Compound C69, 3-Amino-4-(6,7-difluoro-1H-indazol-4-yl)-6-propan-2-yloxy-1H-1,7-phenanthrolin-2-one]",2,0.1,66,69
"COc1cc2c(-c3cc(F)c(Cl)c4[nH]ncc34)c(N)c(=O)[nH]c2c2cccnc12 [Compound C76, 3-Amino-4-(7-chloro-6-fluoro-1H-indazol-4-yl)-6-methoxy-1H-1,7-phenanthrolin-2-one]",1.5,0.092,68,67
"Nc1c(-c2ccc(F)c3[nH]ncc23)c2cc(Cl)c3ncccc3c2[nH]c1=O [Compound C78, 3-Amino-6-chloro-4-(7-fluoro-1H-indazol-4-yl)-1H-1,7-phenanthrolin-2-one]",3.1,< 0.17,53,66
"Nc1c(-c2ccc(F)c3[nH]ncc23)c2ccc3ncccc3c2[nH]c1=O [Compound C83, 3-Amino-4-(7-fluoro-1H-indazol-4-yl)-1H-1,7-phenanthrolin-2-one]",2.4,0.2,54,66
"Nc1c(-c2ccc(F)c3[nH]ncc23)c2cc(C3CC3)c3ncccc3c2[nH]c1=O [Compound C84, 3-amino-6-cyclopropyl-4-(7-fluoro-1H-indazol-4-yl)-1H-1,7-phenanthrolin-2-one]",2.3,0.25,68,70
"Cc1cc2c(-c3ccc(F)c4[nH]ncc34)c(N)c(=O)[nH]c2c2cccnc12 [Compound C85, 3-amino-4-(7-fluoro-1H-indazol-4-yl)-6-methyl-1H-1,7-phenanthrolin-2-one]",2.5,0.19,59,58
"CCc1cc2c(-c3ccc(F)c4[nH]ncc34)c(N)c(=O)[nH]c2c2cccnc12 [Compound C86, 3-Amino-6-ethyl-4-(7-fluoro-1H-indazol-4-yl)-1H-1,7-phenanthrolin-2-one]",4.6,< 0.17,67,71
"Cn1cc(-c2cc3c(-c4ccc(F)c5[nH]ncc45)c(N)c(=O)[nH]c3c3cccnc23)cn1 [Compound C88, 3-Amino-4-(7-fluoro-1H-indazol-4-yl)-6-(1-methylpyrazol-4-yl)-1H-1,7-phenanthrolin-2-one]",4.4,< 0.17,53,61
"CC#Cc1cc2c(-c3ccc(F)c4[nH]ncc34)c(N)c(=O)[nH]c2c2cccnc12 [Compound C90, 3-Amino-4-(7-fluoro-1H-indazol-4-yl)-6-prop-1-inyl-1H-1,7-phenanthrolin-2-one]",14,0.42,50,60
"Nc1c(-c2ccc(F)c3[nH]ncc23)c2cc(C3CCC3)c3ncccc3c2[nH]c1=O [Compound C91, 3-Amino-6-cyclobutyl-4-(7-fluoro-1H-indazol-4-yl)-1H-1,7-phenanthrolin-2-one]",10,1.1,59,61
"Nc1c(-c2ccc(F)c3[nH]ncc23)c2cc(C3CCCC3)c3ncccc3c2[nH]c1=O [Compound C92, 3-Amino-6-cyclopentyl-4-(7-fluoro-1H-indazol-4-yl)-1H-1,7-phenanthrolin-2-one]",19,1.7,56,68
"Nc1c(-c2ccc(F)c3[nH]ncc23)c2cc(C3CCOCC3)c3ncccc3c2[nH]c1=O [Compound C98, 3-Amino-4-(7-fluoro-1H-indazol-4-yl)-6-(oxan-4-yl)-1H-1,7-phenanthrolin-2-one]",2.8,< 4.6,46,53
